Reference: patent publication US9944700B2, “Notch2 binding molecules for treating respiratory diseases” (NOVARTIS AG, priority 2013, dated 2018)

Key:
[1] = system: Human airway basal cells grown in 3D; test: IL-13-driven goblet cell metaplasia in 3D bronchospheres, qPCR of cell type markers; type: cell-based
Procedure: (§1) Human bronchial epithelial (HBE) cells and culture media were obtained from Lonza. Air-liquid interface cultures using passage 2 (P2) cells were performed as previously described (Danahay, H. et al., American journal of physiology. Lung cellular and molecular physiology 282, L226-236 (2002)). For three-dimensional culturing of HBE cells, P1 cells were trypsinized and resuspended (30,000 cells/ml) in HBE differentiation media containing 5% growth factor-reduced Matrigel (BD Biosciences). 20 μl of suspension was plated in each well of a 384-well plate (Greiner) pre-coated with 10 μl of a 25% solution of Matrigel (BD Biosciences) in HBE differentiation media. Wells were fed or treated at day 2 and day 8 of culture by adding 30 μl of differentiation media containing the appropriate treatment. Three-dimensional cultures were analyzed at the time points indicated.
RNA was isolated from 3D bronchosphere cultures with Trizol (Invitrogen), using manufacturer's specifications. […] Quantitative PCR was performed on a ViiA7 Real-Time PCR System (Applied Biosystems), using 40 ng of cDNA per reaction with the following Taqman probes (Applied Biosystems): MUC5AC, Hs01365601_m1; MUC5B, Hs00861588_m1; FOXA3, Hs00270130_m1; FOXJ1, Hs00230964_m1; DNAI2, Hs01001544_m1; TP63, Hs00978340_m1; ITGA6, Hs01041011_m1; GAPDH, Hs99999905_m1; Muc5ac, Mm012718_m1; Foxj1, Mm012367279_m1; Trp63, Mm00495788_m1; Gapdh, Mm99999915_g1.
In order to understand if neutralizing Notch2 could prevent goblet cell metaplasia, a hallmark of several airway diseases including asthma, cystic fibrosis, and COPD, anti-Notch2 antibodies were tested for their effect on IL-13-driven goblet cell metaplasia in 3D bronchospheres. Human airway basal cells were grown in 3D in the presence of vehicle control or IgG, with or without 1 ng/ml IL-13, or increasing concentrations of α-N2 D3 or 59R5 antibodies together with 1 ng/ml of IL-13, and analyzed by qPCR for the expression levels of the indicated goblet cell markers (FIG. 5a), ciliated cell markers (FIG. 5b), and basal cell markers (FIG. 5c).

[2] = system: Human airway basal cells grown in 3D; test: 3D bronchosphere cultures treated with Notch receptor-specific blocking antibodies, qPCR of cell type markers; type: cell-based
Procedure: as §1
RNA was isolated from 3D bronchosphere cultures with Trizol (Invitrogen), using manufacturer's specifications. To isolate RNA from mouse tissue, approximately 20 mg of tissue was placed in a 1.5 ml eppendorf tube with 1 ml of Buffer RLT Plus (Qiagen). A 5 mm stainless steel bead (Qiagen) was added to the tube, and the tissue was sheared using a Tissue Lyser II (Qiagen). RNA from the sheared tissue was purified using the RNeasy Plus Mini Kit (Qiagen), using manufacturer's specifications. TaqMan Reverse Trascription Reagents (Invitrogen) were used to generate cDNA from 1 μg of total RNA. Quantitative PCR was performed on a ViiA7 Real-Time PCR System (Applied Biosystems), using 40 ng of cDNA per reaction with the following Taqman probes (Applied Biosystems): MUC5AC, Hs01365601_m1; MUC5B, Hs00861588_m1; FOXA3, Hs00270130_m1; FOXJ1, Hs00230964_m1; DNAI2, Hs01001544_m1; TP63, Hs00978340_m1; ITGA6, Hs01041011_m1; GAPDH, Hs99999905_m1; Muc5ac, Mm012718_m1; Foxj1, Mm012367279_m1; Trp63, Mm00495788_m1; Gapdh, Mm99999915_g1. […]

[3] = system: IL-13 driven goblet cell metaplasia; test: IL-13 mouse model, co-administration of anti-Notch2 antibodies; type: in vivo
Procedure: RNA was isolated from 3D bronchosphere cultures with Trizol (Invitrogen), using manufacturer's specifications. To isolate RNA from mouse tissue, approximately 20 mg of tissue was placed in a 1.5 ml eppendorf tube with 1 ml of Buffer RLT Plus (Qiagen). A 5 mm stainless steel bead (Qiagen) was added to the tube, and the tissue was sheared using a Tissue Lyser II (Qiagen). RNA from the sheared tissue was purified using the RNeasy Plus Mini Kit (Qiagen), using manufacturer's specifications. TaqMan Reverse Trascription Reagents (Invitrogen) were used to generate cDNA from 1 μg of total RNA. Quantitative PCR was performed on a ViiA7 Real-Time PCR System (Applied Biosystems), using 40 ng of cDNA per reaction with the following Taqman probes (Applied Biosystems): MUC5AC, Hs01365601_m1; MUC5B, Hs00861588_m1; FOXA3, Hs00270130_m1; FOXJ1, Hs00230964_m1; DNAI2, Hs01001544_m1; TP63, Hs00978340_m1; ITGA6, Hs01041011_m1; GAPDH, Hs99999905_m1; Muc5ac, Mm012718_m1; Foxj1, Mm012367279_m1; Trp63, Mm00495788_m1; Gapdh, Mm99999915_g1.
Female Balb/c mice (20-25 g) were obtained from Charles River (Morgate, UK). Mice were housed under specific pathogen free conditions and were provided with food and water ad libitum. Experiments were performed in accordance with the UK Animals Scientific Procedures Act 1986.
Mice received 0.5 μg of recombinant mouse IL-13 (Ebiosciences, UK) or phosphate-buffered saline (PBS) intranasally on 3 consecutive (days 1, 2, 3). Mice received either 20 mg/kg neutralizing antibody against Notch2 (α-N2 D3 or α-N2 59R5) or control IgG, or PBS intraperitoneally 2 hours before intranasal challenge with either IL-13 or PBS, on days 1 and 3 only. Mice were euthanized 24 hours after the final IL-13 administration. The left lungs were excised, inflated with 10% neutral buffered formalin (NBF) and preserved in NBF. Lungs were embedded in paraffin wax and lung sections were obtained for each animal. Sections were stained with Periodic Acid-Schiff (PAS) stain for mucus.
PAS positive staining was quantified in lung sections using Definiens Image Analysis software. Two distinct lung sections were analyzed per mouse and the total area of PAS positive staining within the sections was determined. The PAS positive staining was normalized to the area of tissue analyzed and represented as ‘Relative Area PAS Positive Mucus (%)’.
Data are expressed as mean±SEM. Statistical significance was determined using a parametric one way ANOVA and Dunnetts post-test. GraphPad Prism (version 5.04) was used to generate graphs and perform statistical analysis. ***p<0.001 denotes statistically significant difference from relevant isotype control group.

[4] = system: Human bronchial epithelial (HBE) cells; test: IL-13-driven goblet cell metaplasia in ALI cultures; type: cell-based; conditions: ALI cultures (results not shown)
Procedure: as §1, with “Wells were fed or treated at day 2 and day 8 of culture by adding 30 μl of differentiation media containing the appropriate treatment.” left out
Immunofluorescence of HBEC bronchospheres was performed as described previously for MCF10A cysts (Debnath, J. et al., Methods 30, 256-268 (2003) with the following modifications. After incubation with fluorescence-conjugated secondary antibodies, DNA was stained with a 1:1 mix of PBS and ProLong gold antifade containing DAPI. Confocal microscopy was performed at room temperature on a microscope (Zeiss LSM510 Meta) using an EC Plan-Neofluar 10×/0.30 dry objective (Zeiss), an EC Plan-Neofluor 20×/0.5 dry objective (Zeiss), a C-Apochromat 40×/1.2 W corr (Zeiss), or a C-Apochromat 63×/1.2 W Corr objective (Zeiss). […]

Substance: 59R5: anti-Notch2 antagonist IgG1 antibody, heavy chain SEQ ID NO: 5, light chain SEQ ID NO: 6
- IL-13-driven goblet cell metaplasia (expression of goblet cell markers MUC5AC, MUC5B and FOX3A) ([1]; 1 ng/ml IL-13, increasing antibody concentrations, qPCR, FIG. 5a): completely inhibited
- ciliated cells function (expression of ciliated cell markers FOXJ1 and DNAI2) ([1]; 1 ng/ml IL-13, qPCR, FIG. 5b): partially restored
- effect on basal cells markers p63 and ITGA6 ([1]; 1 ng/ml IL-13, qPCR, FIG. 5c): No effect
- effect on basal cell markers p63 and ITGA6 ([2]; FIG. 4c): Neither antibody showed any significant effect
- goblet cell formation: expression of goblet cell markers MUC5AC, MUC5B and FOXA3 ([2]; compared with IgG control or anti-Notch1 / anti-Notch3 antibodies, FIG. 4a): decreased
- ciliated cell formation: expression of ciliated cells markers FOXJ1 and DNAI2 ([2]; compared with IgG control or anti-Notch1 / anti-Notch3 antibodies, FIG. 4b): increasing
- effect on basal cell marker Trp63, qPCR of whole lung tissue ([3]; 20 mg/kg i.p. days 1 and 3, FIG. 6e): no effect
- ciliated cell marker Foxj1, qPCR of whole lung tissue ([3]; 20 mg/kg i.p. days 1 and 3, FIG. 6d): concomitant increase
- Muc5ac expression levels, qPCR of whole lung tissue RNA ([3]; 20 mg/kg i.p. days 1 and 3, confirms reduced goblet cell metaplasia, FIG. 6c): verified this observation
- IL-13 driven goblet cell metaplasia (PAS staining of lung sections) ([3]; Balb/c mice, 20 mg/kg antibody i.p. 2 hours before intranasal IL-13, days 1 and 3, FIGS. 6a, 6b): completely blocked
- IL-13-driven goblet cell metaplasia [4]: completely inhibited
